Laboratory results as given in patent publication US8377935B2, “Substituted aminopropenyl piperidine or morpholine derivatives as novel inhibitors of histone deacetylase” (Janssen Pharmaceutica N.V., priority 2005, dated 2013).

What was measured:
p21 promoter = experiment: p21 induction capacity, cellular method (ZsGreen reporter in A2780 clones); assay type: cell-based, human; settings: A2780 clones with p21 1300 bp promoter-ZsGreen reporter, 24 hours treatment, percentage of control
Protocol: A first method tests the capacity of compounds to induce p21 as the consequence of HDAC inhibition at the cellular level. […] The reporter gene is a fluorescent protein and the expression of the reporter gene is measured as the amount of fluorescent light emitted (see example C.6.a.). The second method is an in vivo method wherein mice are used for screening the pharmaceutical activity of a compound. The above described stably transformed tumour cells can be administered to mice in an amount sufficient to effect production of a tumour. After the tumour cells had sufficient time to form a tumour, a potentially active compound can be administered to the animals and the effect of said compound On the tumour cells is evaluated by measuring the expression of the reporter gene. […]
The A2780 selected clones were expanded and seeded at 10000 cells per well into 96-well plates. […] The p21 promoter activation leading to ZsGreen production and thus fluorescence, was monitored by the Ascent Fluoroskan (Thermo Labsystems, Brussels, Belgium).
For each experiment, controls (containing no drug) and a blank incubation (containing no cells or drugs) were run in parallel. […] For each sample, the value for p21 induction was expressed as the percentage of the value for p21 present in the control. […]

[1] = target: histone deacetylase (HeLa nuclear extracts); experiment: In vitro assay for inhibition of histone deacetylase (HDAC Fluorescent Activity Assay, Fluor de Lys); assay type: biochemical; settings: HeLa nuclear extracts 60 μg/ml, 75 μM Fluor de Lys substrate
Excerpt: The in vitro assay for inhibition of histone deacetylase (see example C.1) measures the inhibition of HDAC enzymatic activity obtained with the compounds of formula (I).
The HDAC Fluorescent Activity Assay/Drug Discovery Kit of Biomol (cat.No: AK-500-0001) was used. The HDAC Fluorescent Activity Assay is based on the Fluor de Lys (Fluorogenic Histone deAcetylase Lysyl) substrate and developer combination. The Fluor de Lys substrate, comprises an acetylated lysine side chain. Deacetylation of the substrate sensitizes the substrate so that, in the second step, treatment with the Fluor de Lys developer produces a fluorophore.
HeLa nuclear extracts (supplier: Biomol) were incubated at 60 μg/ml with 75 μM of substrate. The Fluor de Lys substrate was added in a buffer containing 25 mM Tris, 137 mM. NaCl, 2.7 mM KCl and 1 mM MgCl2.6H2O at pH 7.4. After 30 min, 1 volume of the developer was added. The fluorophore was excited with 355 nm light and the emitted light (450 nm) was be detected on a fluorometric plate reader.
For each experiment, controls (containing HeLa nuclear extract and buffer), a blank incubation (containing buffer but no HeLa nuclear extract) and samples (containing compound dissolved in DMSO and further diluted in buffer and HeLa nuclear extract) were run in parallel. In first instance, compounds were tested at a concentration of 10^−5M. […] All sample were tested 4 times. In each test the blank value was substracted from both the control and the sample values. The control sample represented 100% of substrate deactylation. For each sample the fluorescence was expressed as a percentage of the mean value of the controls. […] Herein the effects of test compounds are expressed as pIC50 (the negative log value of the IC50-value) (see Table F-3).

O=C(NO)c1cnc(N2CCC(CNC(/C=C/c3ccccc3)CO)CC2)nc1 (centres unmarked) [Compound 1]
p21 induction (p21 promoter): significant induction (Percentage induction higher than 130% was defined as significant induction)
Enzyme activity pIC50 [1]: 9.0
